Source: US20250074910A1, “MENIN INHIBITOR AND USE THEREOF” (HITGEN INC., priority 2021, published 2025)

What was measured:
[1] = Stability in mouse liver microsomes; format: in vitro ADME; settings: 1.00 μM compound, NADPH; for half-life at 1 μM: liver microsomes, pH 7.4, 0.5 mg/mL microsomal protein, read-out: Half life T1/2, mouse liver microsomes; for Half life T1/2, mouse liver microsomes: 0.5 mg/mL microsomal protein
Procedure: (§1) Test Example 3: Test of Stability of Compounds in Liver Microsome
(§2) Test purpose: To determine the stability of some of the compounds of the present disclosure in mouse, dog and human liver microsomes by LC-MS/MS method.
(§3) Test materials: The test drugs were in-house prepared example compounds of the present disclosure; the positive reference compound SNDX-5613 was prepared by the method of Example 253 in patent WO2017214367; the control compound 1 was prepared by the method of Example 64 in WO2017214367; liver microsomes were purchased from CORNING.
(§4) The total volume of each incubation system was approximately 45 μL, and the medium was 100 mM phosphate buffer (PBS, pH 7.4), including liver microsomal protein at a final concentration of 0.5 mg/mL, 1.00 μM compound and 2.00 mM NADPH, and the organic phase content was <1%. Incubation was performed in a 37° C. incubator, and 135 μL of ice-cold acetonitrile was added after 0, 5, 15, 30 and 60 min of reaction to terminate the reaction. The positive control group was incubated with 1.00 μM Ketanserin, 0.5 mg/mL liver microsomal protein and 2.00 mM NADPH in a 37° C. incubator for 0, 5, 15, 30 and 60 min respectively, and then 135 μL of ice-cold acetonitrile was added to terminate the reaction. The 96-well plates were shaken at 600 rpm for 10 min and then centrifuged at 4700 rpm at 4° C. for 15 min. 80 μL of supernatant was mixed with 320 μL of pure water, and the remaining amount of the compound was detected by LC-MS/MS method. The in vitro half life (T½) and intrinsic clearance (CLint) were calculated according to the following formula:
(§5) Intrinsic clearance (Clint)=(0.693/T1/2)×(1/liver microsome concentration)×conversion factor. k is the linear regression slope of the remaining percentage of the ln compound-incubation time.

[2] = Stability in human liver microsomes; format: in vitro ADME; settings: 0.5 mg/mL microsomal protein, 1.00 μM compound, NADPH; for half-life at 1 μM: human, liver microsomes, pH 7.4, Human, read-out: Half life T1/2, human liver microsomes
Procedure: as §1, §2, §3, §4, §5

[3] = target: Menin/MLL-4-43 peptide interaction (Homo sapiens (Human), UniProt O00255); assay: Menin-MLL interaction inhibitory activity assay (fluorescence polarization competition); format: binding; settings: FITC-MLL4-43-peptide, Menin recombinant protein
Method in brief: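 Menin (8 nM solution) was preincubated 15 min with compound, then FITC-MLL4-43 peptide (10 nM solution) was added and shaken for 60 min at 25 °C. The buffer was 50 mM Tris pH 7.5, 50 mM NaCl, 1 mM DTT. IC50 was derived from fluorescence polarization read at 485/520 nm.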

[4] = tested on: OCI-AML3; assay: Cell proliferation inhibition (CellTiter-Glo), OCI-AML3 (NPM1 mutation); format: cell-based; settings: OCI-AML3 cells
Procedure: (§6) Test Example 2: Test of the Inhibitory Ability of Menin-MLL Interaction Inhibitors on Cell Proliferation
(§7) The inhibitory ability of the compounds of the present disclosure on the proliferation of tumor cell lines (including cell lines containing MLL fusion protein such as MV4-11, MOLM-13, THP-1 and NOMO-1, control cell lines without MLL fusion protein such as HL-60, K562 and MOLM-16, and cell lines containing NPM1 mutation such as OCI-AML3) was evaluated by using the cell viability analysis method. The cells were plated in 96-well plates at a certain concentration (e.g., 5,000-20,000 cells/well), and then an equal volume of culture medium containing 2 times the final concentration of the test compound (the final concentration ranging 10 from 1 nM to 10 μM) was added. The plates were placed in an incubator and cultured at 37° C. and 5% CO2 for 72-168 h. Before the test, an equal volume of CellTiter-Glo® Luminescent reagent was added, and the plate was incubated at room temperature for 10 min before detection using an ELISA reader (BMG LABTECH). The data were analyzed using GraphPad Prism software to obtain the IC50 value and compound fitting curve. The control compound 1 was prepared by referring to the method of Example 64 in WO2017214367.

[5] = tested on: MV4-11; assay: Cell proliferation inhibition (CellTiter-Glo), MV4-11; format: cell-based; settings: MV4-11 cells
Method in brief: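 Seed 5,000-20,000 cells/well; add compound to final 1 nM-10 μM; culture 72-168 h at 37° C, 5% CO2; add equal volume CellTiter-Glo, 10 min RT; read luminescence; fit IC50.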

[6] = Stability in dog liver microsomes; format: in vitro ADME; settings: 0.5 mg/mL microsomal protein, 1.00 μM compound, NADPH; for half-life at 1 μM: dog, liver microsomes, pH 7.4, Dog, read-out: Half life T1/2, dog liver microsomes
Procedure: as §1, §2, §3, §4, §5

[7] = tested on: MOLM-13; assay: Cell proliferation inhibition (CellTiter-Glo), MOLM-13; format: cell-based; settings: MOLM-13 cells
Procedure: as §6, §7

[8] = Pharmacokinetics test in mouse; format: in vivo, ICR mice; settings: mice, p.o. 10 mg/kg
Text: Test Example 4. In Vivo Pharmacokinetic Study
Test purpose: To determine the pharmacokinetic properties of some of the example compounds of the present disclosure in mice, rats and dogs after single intravenous injection (i.v.) and oral gavage (i.g.) administration by LC-MS/MS method.
Research methods: An appropriate amount of compound was weighed and prepared into a transparent clear solution of a certain concentration using 0.9% sodium chloride injection and 1.5 equivalents of 1M HCl aqueous solution based on the molar number of the compound. After SPF male ICR mice, SPF male SD rats, and male beagle dogs were fasted overnight, the test compound solution was given by intravenous injection and oral gavage at the corresponding dose. Anticoagulated whole blood of the test animals was collected at 5 min, 15 min, 30 min, 1 h, 2 h, 4 h, 8 h, and 24 h after administration, and plasma was separated. Plasma samples at each time point were detected by LC-MS/MS, and the plasma concentration of the compound was determined by the standard curve correction method. Phoenix WinNonlin 5.2 non-compartmental model was used to calculate the pharmacokinetic parameters of terminal elimination half-life (t½), blood peak concentration (Cmax), area under the concentration-time curve (AUC), clearance (CL), and bioavailability (F %), which was directly obtained from the serum concentration results. Blood drug concentration and pharmacokinetic parameters are expressed as mean±standard deviation (X±SD). The specific test protocols for each species are as follows.
Pharmacokinetics Test in Mouse
Test animals: SPF male ICR mice, weighing 25-30 g, 12 mice/compound, purchased from Chengdu Dossy Experimental Animal Co., Ltd.
Test design: On the day of the test, ICR mice were randomly divided into groups according to body weight, fasted but with free water for 12-14 h one day before administration, and fed 2 h after administration.
Preparation of test compound solution: The concentration of the test compound for oral gavage was 1 mg/mL. An appropriate amount of compound was weighed and prepared into a 1 mg/mL transparent clear solution using 0.9% sodium chloride injection and 1.5 equivalents of 1M HCl aqueous solution. The concentration of the test compound for intravenous injection was 0.2 mg/mL. The 1 mg/mL transparent clear solution was diluted to a concentration of 0.2 mg/mL using 0.9% sodium chloride injection. The volume of 1 M HCl solution added was calculated as: volume of 1 M HCl solution added […]=weighed amount of compound (mg)/molecular weight×1.5×1000. The amount added during preparation must not exceed the calculated value.
The test substance was administered as follows: intravenous injection: 1 mg/kg of dose, 5 mL/kg of volume, 6 mice; oral gavage: 10 mg/kg of dose, 10 mL/kg of volume, 6 mice.
Sample collection: Blood (40-50 μl) was collected in anticoagulant tubes sprayed with EDTA-K2 through the orbital venous plexus at 5 min, 15 min, 30 min, 1 h, 2 h, 4 h, 8 h, and 24 h after administration, and centrifuged at 10,000 rpm for 20 min within 1 h (the blood was saved on wet ice before and after centrifugation). The supernatant, which was plasma, was collected and frozen in a refrigerator at −20° C. or below for LC-MS/MS analysis of Full PK of male ICR mice (2 mice per group, 4 blood collection time points per mouse, crossover).

[9] = male, ICR, mouse, plasma, po, 10 mg/kg

Chain of Menin/MLL-4-43 peptide interaction (O00255 whole entry, species assumed): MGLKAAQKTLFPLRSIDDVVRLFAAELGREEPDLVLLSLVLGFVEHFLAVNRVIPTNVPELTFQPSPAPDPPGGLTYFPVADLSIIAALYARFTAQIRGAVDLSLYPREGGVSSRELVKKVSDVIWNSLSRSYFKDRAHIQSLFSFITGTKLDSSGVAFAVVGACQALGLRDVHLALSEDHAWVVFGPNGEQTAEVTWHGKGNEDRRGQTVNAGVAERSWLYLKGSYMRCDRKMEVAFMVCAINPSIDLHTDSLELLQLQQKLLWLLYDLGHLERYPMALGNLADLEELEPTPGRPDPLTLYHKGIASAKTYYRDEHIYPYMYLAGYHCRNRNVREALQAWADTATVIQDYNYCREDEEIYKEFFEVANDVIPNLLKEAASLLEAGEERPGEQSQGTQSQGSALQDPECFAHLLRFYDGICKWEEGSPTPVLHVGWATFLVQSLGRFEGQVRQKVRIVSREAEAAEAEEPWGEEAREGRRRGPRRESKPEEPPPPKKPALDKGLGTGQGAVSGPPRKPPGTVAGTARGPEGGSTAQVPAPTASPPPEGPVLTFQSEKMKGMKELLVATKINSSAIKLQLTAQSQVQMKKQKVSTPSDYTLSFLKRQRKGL

## CCN(C(=O)c1cc(F)ccc1Oc1nncnc1N1CC2(CCN(CC3CCC4(CC3)CN(C)C(=O)N4)CC2)C1)C(C)C (single isomer, unassigned) [Example 46-1]
[1]
  half-life at 1 μM: > 2 h
[2]
  half-life at 1 μM: 1.31 h
[3]
  IC50: 35.3 nM
[4]; Homo sapiens, OCI-AML-3, 168 h
  GI50: 140 nM
[5]; Homo sapiens, MV4-11, 72 h
  GI50: 100 nM
[6]
  half-life at 1 μM: > 2 h
[7]; Homo sapiens, MOLM-13, 168 h
  GI50: 329 nM

## [2H]C([2H])([2H])C1C[C@]2(CC[C@@H](CN3CCC4(CC3)CN(c3ncnnc3Oc3ccc(F)cc3C(=O)N(C(C)C)C(C)C)C4)CC2)NC1=O (single isomer, unassigned) [Example 43-1]
[1]
  half-life at 1 μM: 1.17 h
[2]
  half-life at 1 μM: 0.582 h
[3]
  IC50: 12.4 nM
[4]; Homo sapiens, OCI-AML-3, 168 h
  GI50: 92 nM
[5]; 72 h
  GI50: 27.8 nM
[6]
  half-life at 1 μM: 0.59 h
[7]; Homo sapiens, MOLM-13, 168 h
  GI50: 133 nM

## CCN(C(=O)c1cc(F)ccc1Oc1nncnc1N1CC2(CCN(C[C@H]3CC[C@]4(CC3)CC3(CCOCC3)C(=O)N4)CC2)C1)C(C)C [Example 45]
[1]
  half-life at 1 μM: > 2 h
[2]
  half-life at 1 μM: 0.618 h
[3]
  IC50: 2.5 nM
[4]; Homo sapiens, OCI-AML-3, 168 h
  GI50: 48.4 nM
[5]; Homo sapiens, MV4-11, 72 h
  GI50: 12.7 nM
[6]
  half-life at 1 μM: 1.53 h
[7]; Homo sapiens, MOLM-13, 168 h
  GI50: 54.1 nM

## CCN(C(=O)c1cc(F)ccc1Oc1nncnc1N1CC2(CCN(C[C@H]3CC[C@@]4(CCC(=O)N4)CC3)CC2)C1)C(C)C [Example 7]
[1]
  half-life at 1 μM: > 2 h
[2]
  half-life at 1 μM: 1.3 h
[3]
  IC50: 62.1 nM
[4]; Homo sapiens, OCI-AML-3, 168 h
  GI50: 323 nM
[5]; Homo sapiens, MV4-11, 72 h
  GI50: 137 nM
[6]
  half-life at 1 μM: 1 h
[7]; Homo sapiens, MOLM-13, 168 h
  GI50: 389 nM

## CCN(C(=O)c1cc(F)ccc1Oc1nncnc1N1CC2(CCN(C[C@H]3CC[C@]4(CC3)CC(C(C)(C)O)C(=O)N4)CC2)C1)C(C)C (single isomer, unassigned) [Example 58-1b]
[1]
  Half life T1/2, mouse liver microsomes: >2 h
[2]
  Half life T1/2, human liver microsomes: 0.593 h
[3]
  IC50: 5.9 nM
[4]; 168 h
  GI50: 30.2 nM
[5]; 72 h
  GI50: 18 nM
[6]; Dog
  Half life T1/2, dog liver microsomes: 1.14 h
[7]; 168 h
  GI50: 56.9 nM

## CC(C)N(C(=O)c1cc(F)ccc1Oc1cncnc1N1CC2(CCN(C[C@H]3CC[C@]4(CC3)CC(C)(C)C(=O)N4)CC2)C1)C1CC1 [Example 23]
[1]
  half-life at 1 μM: 0.808 h
[8]; [9]
  AUC(0-t): 2650 ng·h/mL
  half-life: 2.52 h
[8]; male, ICR, mouse, plasma, po, 10 mg/kg, read-out: Cmax
  Cmax: 1510 ng/mL
[8]; 1 mg/kg for intravenous injection
  F, %: 119%
[2]
  half-life at 1 μM: 0.605 h
[3]
  IC50: 12 nM
[4]; Homo sapiens, OCI-AML-3, 168 h
  GI50: 77.9 nM
[5]; Homo sapiens, MV4-11, 72 h
  GI50: 20 nM
[7]; Homo sapiens, MOLM-13, 168 h
  GI50: 157 nM

## CC(C)c1ncncc1-c1cc(F)ccc1Oc1cncnc1N1CC2(CN(CC3CCC4(CC3)OCCO4)C2)C1 [Control compound 1, reference compound]
[1]
  Half life T1/2, mouse liver microsomes: 0.0625 h
[2]
  Half life T1/2, human liver microsomes: 0.0795 h
[3]
  IC50: 156 nM
[5]; 72 h
  GI50: 82.7 nM

## CCN(C(=O)c1cc(F)ccc1Oc1nncnc1N1CC2(CCN(CC3CC4CCC3CC43CCC(=O)N3)CC2)C1)C(C)C (single isomer, unassigned) [Example 14-1a]
[1]
  half-life at 1 μM: > 2 h
[2]
  half-life at 1 μM: 0.955 h
[3]
  IC50: 49.2 nM
[5]; Homo sapiens, MV4-11, 72 h
  GI50: 86.1 nM

## CC(C)N(C(=O)c1cc(F)ccc1Oc1nncnc1N1CC2(CCN(CC3CCC4(CC3)CN(C)C(=O)N4)CC2)C1)C(C)C (single isomer, unassigned) [Example 47-1]
[1]
  half-life at 1 μM: > 2 h
[2]
  half-life at 1 μM: 0.78 h
[3]
  IC50: 20.2 nM
[5]; Homo sapiens, MV4-11, 72 h
  GI50: 118 nM
[6]
  half-life at 1 μM: 1.28 h
